Key:
[1] = test system: tyrosine phosphorylation of various proteins; assay: LPS-stimulated tyrosine phosphorylation of various proteins in RAW 264.7 cells (antiphosphotyrosine immunoblot); type: cell-based, murine; conditions: 3h pretreatment, LPS 1 μg/ml 30 min; FIG. 5A
Procedure: (§1) Rat (Sprague-Dawley) alveolar macrophages were collected by broncho-alveolar lavage as described by Lee et al., J. Biol. Chem., vol. 267, pp. 25934-25938 (1992). The murine macrophage cell line RAW 264.7 (ATCC no. TIB-71) was cultured in Dubecco's modified Eagle's medium (DMEM) containing 10% heat-inactivated fetal bovine serum (FBS, Intergen). For the cyclooxygenase activity assay, cells were seeded in 24 well plates, and after near-confluency, cells were treated with aspirin (250 μM) for 2.5h to inactivate endogenous cyclooxygenase. […] COX activity was determined by measuring prostaglandin E2 concentrations in cells incubated with arachidonic acid (30 μM) for 10 minutes as described in Lee et al. (1992).
(§2) This detection technique was carried out essentially as described in Chanmugan et al. (1995) using 4G10 monoclonal antiphosphotyrosine antibody (UBI) and the ECL detection system (Amersham).
(§3) Parthenolide suppressed LPS-stimulated tyrosine phosphorylation of various proteins in RAW 264.7 cells as assessed by antiphosphotyrosine immunoblot, depicted in FIG. 5A. This inhibition was correlated with the suppressed expression of COX-2 and IL-1α. […] Therefore, the extent of tyrosine phosphorylation of JNK-1 was assessed by the electrophoretic mobility shift of phosphorylated JNK-1 as shown in FIG. 5B. […]

P38 = assay: Tyrosine phosphorylation of P38 in RAW 264.7 cells (antiphosphotyrosine immunoblot); type: cell-based, murine; conditions: 3h pretreatment, LPS 1 μg/ml 30 min; FIG. 5A
Procedure: as §1, §2, §3

[2] = test system: Nuclear Factor-kB (NF-kB); assay: NF-kB activated by LPS in RAW 264.7 cells (degradation of IKBα); type: cell-based, murine
From the text: Parthenolide inhibits Nuclear Factor--kB (NF-kB) transcription factor that has been activated by LPS in the murine macrophage cell line (RAW 264.7) as assessed by the degradation of the protein, IKBα. Activated NF-kB is known to induce the expression of many early response genes including inducible nitric oxide synthetase, cyclooxygenase, and chemokines that are implicated in acute inflammatory responses.

MAPKs = assay: Tyrosine phosphorylation / activation of MAPKs in RAW 264.7 cells; type: cell-based, murine; conditions: 3h pretreatment (herbimycin A 0.5 μg/ml), LPS 1 μg/ml 30 min
Procedure: as §1, §2
Parthenolide suppressed LPS-stimulated tyrosine phosphorylation of various proteins in RAW 264.7 cells as assessed by antiphosphotyrosine immunoblot, depicted in FIG. 5A. This inhibition was correlated with the suppressed expression of COX-2 and IL-1α. RAW 264.7 cells were pretreated with parthenolide in various concentrations or with herbimycin A (0.5 μg/ml) for 3h, and then stimulated with LPS (1 μg/ml) in the presence of the inhibitors for 30 min. […] Therefore, the extent of tyrosine phosphorylation of JNK-1 was assessed by the electrophoretic mobility shift of phosphorylated JNK-1 as shown in FIG. 5B. Parthenolide inhibited tyrosine phosphorylation of JNK-1. Another protein tyrosine kinase inhibitor, herbimycin A ([…]), inhibited tyrosine phosphorylation of the MAPK subfamily.
The mechanism by which parthenolide inhibits protein tyrosine phosphorylation is not currently known. It has been speculated that the tyrosine kinase inhibitor herbimycin A inactivates p60^v-src kinase by irreversibly binding to the sulphydryl (SH) groups of p60^v-src kinase. Y. Uehara et al., Biochem. Biophys. Res. Commun., vol. 163, pp. 803-809 (1989). The inactivation by herbimycin may occur through conjugation between highly polarized double bonds in the benzoquinone moiety of herbimycin A and the SH group of sulphydryl compounds. Without wishing to be bound by this theory, the α-methylenebutyrolactone in parthenolide may interact with biological nucleophiles such as sulphydryl groups. Indeed, pretreating cells with sulphydryl compounds abrogated the inhibitory effect of parthenolide on LPS-induced activation of MAPKs as shown in FIG. 6A. In FIG. 6, RAW 264.7 cells were pretreated with parthenolide (1 μg/ml) in the presence of DTT (dithiothreitol, 100 μM), 2-ME (2-mercaptoethanol, 50 μM), or Cys (L-cysteine, 150 μM), and were then stimulated with LPS (1 μg/ml). Cells were incubated for 30 min for antiphosphotyrosine immunoblot analysis (FIG. 6A) and 8h for COX-2 and IL-1α Western blot analyses (FIG. 6B). […] Whether parthenolide inhibits protein tyrosine phosphorylation by directly inhibiting PTKs or by inhibiting other target protein(s) that affect the activity of PTKs is not currently known.

COX-2 = assay: COX activity of de novo synthesized COX-2 (PGE2) in LPS-stimulated, aspirin-pretreated alveolar macrophages; type: cell-based, Rat (Sprague-Dawley); conditions: LPS 10 μg/ml, 16h; PGE2 from exogenous arachidonic acid; FIG. 2; read-out: IC50, inhibition of the expression of COX activity
Procedure: as §1
Recovered COX activity in cells pretreated with aspirin reflected de novo synthesized COX-2. Alveolar macrophages pretreated with aspirin were incubated with LPS (10 μg/ml) and various concentrations of parthenolide for 16h. The activity of de novo synthesized COX-2 was determined by measuring the levels of PGE2 produced from exogenous arachidonic acid. Activity of TNFα was determined by bioassay using L929 cells as described by Aggarwal et al., J. Biol. Chem., vol. 260, pp. 2345-2354 (1985). […] Values in FIG. 2 are the means of triplicate samples for TNFα and duplicate samples for PGE2.

ERK-1 = assay: Kinase activity of ERK-1 in RAW 264.7 cells (in-gel kinase assay, MBP substrate); type: cell-based, murine; conditions: 3h pretreatment, LPS 1 μg/ml 30 min; FIG. 5
Procedure: as §1
(§4) This assay was performed according to the method described by Kameshita et al., Anal. Biochem., vol. 183, pp. 139-143 (1989) using myelin basic protein (MBP) as a substrate.
as §3

IL-1α = IL-1α protein expression in LPS-stimulated alveolar macrophages (Western blot); type: cell-based, Rat (Sprague-Dawley); conditions: 16h, FIG. 3A
Procedure: as §1
The protein levels of COX-2 and GAPDH were assessed by Western blot analysis using polyclonal antibodies as described in Lee et al. (1992). Polyclonal antibodies for IL-1α and JNK-1 were purchased from Genzyme and Santa Cruz Biotech, respectively.
In FIG. 3A, alveolar macrophages were incubated with LPS and various concentrations of parthenolide for 16h. Solubilized proteins were analyzed by COX-2, IL-1α or GAPDH immunoblotting. FIG. 3A is a representative immunoblot of more than five different analyses. Data are shown for various concentrations of both parthenolide (PTN) and herbimycin A (HER). […]

ERK-2 [3] = assay: Tyrosine phosphorylation of ERK-2 in RAW 264.7 cells (antiphosphotyrosine immunoblot); type: cell-based, murine; conditions: 3h pretreatment, LPS 1 μg/ml 30 min; FIG. 5A
Procedure: as §1, §2, §3

IL-1β mRNA = assay: Steady state levels of IL-1β mRNA in LPS-stimulated alveolar macrophages (RNase protection assay); type: cell-based, Rat (Sprague-Dawley); conditions: FIG. 3B (2h) and FIG. 4 (parthenolide 1 μg/ml, time course)
Procedure: as §1
Total cellular RNA was isolated by TRIzoL reagent (Gibco, BRL). The RNase protection assay was performed as described in Chanmugan et al. (1995).
In FIG. 3B, alveolar macrophages were incubated with LPS in the presence of various concentrations of parthenolide for 2h. Steady state levels of mRNA were determined by RNase protection assay. In FIG. 4, alveolar macrophages were incubated with LPS in presence of 1 μg/ml of parthenolide for specified time periods. The concentrations of mRNA were determined by RNase protection assay.

ERK-2 [4] = assay: Kinase activity of ERK-2 in RAW 264.7 cells (in-gel kinase assay, MBP substrate); type: cell-based, murine; conditions: 3h pretreatment, LPS 1 μg/ml 30 min; FIG. 5
Procedure: as §1, §4, §3

With `C=C1C(=O)O[C@H]2[C@H]1CC/C(C)=C/CC[C@@]1(C)O[C@@H]21` [Compound 1, Parthenolide] the “LPS-stimulated tyrosine phosphorylation of various proteins” value [1] was “suppressed”, the “tyrosine phosphorylation of P38” value (P38) was “inhibited by parthenolide in a dose-dependent manner” and the “inhibition of NF-kB transcription factor activated by LPS” value [2] was “inhibits”. The “tyrosine phosphorylation of the MAPK subfamily” value (MAPKs) was “most dramatic inhibition”, the IC50 (COX-2) was ~800 nM and the “kinase activity of ERK-1” value (ERK-1) was “dose-dependent inhibition”. For the same molecule, the “expression of IL-1α protein” value (IL-1α; listed as Parthenolide) was “inhibited”, the “expression of IL-1α protein” value (IL-1α; listed as parthenolide) was “dose-dependent inhibition” and the “tyrosine phosphorylation of ERK-2” value (ERK-2 [3]) was “inhibited by parthenolide in a dose-dependent manner”. For the same molecule, the “steady state levels of mRNA for IL-1β” value (IL-1β mRNA) was “inhibited” and the “kinase activity of ERK-2” value (ERK-2 [4]) was “dose-dependent inhibition”.

Source: US5905089A, “Use of sesquiterpene lactones for treatment of severe inflammatory disorders” (Board of Supervisors of Louisiana State University and …, priority 1998, dated 1999)
